Usually pIC50 stands for −log10 of the IC50, conventionally taken in molar units.

The values that follow come from ChEMBL document CHEMBL4765475, “Tuning the Biological Activity of RGD Peptides with Halotryptophans†” (J Med Chem, 2021).

In assay [1] the target is Integrin alpha-5/beta-1 (Homo sapiens, UniProt P05556+P08648). In words: Binding affinity to human integrin alpha5beta1 incubated for 1 hr by ELISA based solid phase integrin binding assay. The assay is classed as protein-complex assay. (In general: ELISA stands for enzyme-linked immunosorbent assay.)
Assay [2] deals with T1, Integrin alpha-V/beta-3 (Homo sapiens, UniProt P05106+P06756). Kind of assay: Binding affinity to human integrin alphaVbeta3 incubated for 1 hr by ELISA based solid phase integrin binding assay. The assay is classed as protein-complex assay.
Target sequence in this assay (P05106 27-788 limits assumed): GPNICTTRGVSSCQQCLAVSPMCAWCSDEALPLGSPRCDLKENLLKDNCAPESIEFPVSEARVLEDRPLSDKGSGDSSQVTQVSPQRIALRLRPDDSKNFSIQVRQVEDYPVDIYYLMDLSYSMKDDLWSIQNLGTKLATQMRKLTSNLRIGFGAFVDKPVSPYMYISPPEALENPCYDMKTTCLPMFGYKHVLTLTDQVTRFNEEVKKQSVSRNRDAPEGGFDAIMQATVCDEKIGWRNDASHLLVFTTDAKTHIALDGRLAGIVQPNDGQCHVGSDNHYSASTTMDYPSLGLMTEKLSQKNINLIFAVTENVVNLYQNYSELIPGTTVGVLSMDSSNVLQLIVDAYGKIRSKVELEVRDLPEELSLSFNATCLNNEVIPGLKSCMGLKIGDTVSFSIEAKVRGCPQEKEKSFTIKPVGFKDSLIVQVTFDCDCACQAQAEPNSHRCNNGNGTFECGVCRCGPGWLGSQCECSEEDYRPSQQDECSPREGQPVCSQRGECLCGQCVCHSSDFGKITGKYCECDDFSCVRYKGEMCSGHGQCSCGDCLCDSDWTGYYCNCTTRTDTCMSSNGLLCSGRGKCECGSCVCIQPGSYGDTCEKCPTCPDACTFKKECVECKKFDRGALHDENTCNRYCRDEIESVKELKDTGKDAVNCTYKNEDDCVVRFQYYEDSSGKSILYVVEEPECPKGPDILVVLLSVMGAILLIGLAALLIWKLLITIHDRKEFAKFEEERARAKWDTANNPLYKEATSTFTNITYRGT
Target sequence in this assay (P06756 31-889 limits assumed): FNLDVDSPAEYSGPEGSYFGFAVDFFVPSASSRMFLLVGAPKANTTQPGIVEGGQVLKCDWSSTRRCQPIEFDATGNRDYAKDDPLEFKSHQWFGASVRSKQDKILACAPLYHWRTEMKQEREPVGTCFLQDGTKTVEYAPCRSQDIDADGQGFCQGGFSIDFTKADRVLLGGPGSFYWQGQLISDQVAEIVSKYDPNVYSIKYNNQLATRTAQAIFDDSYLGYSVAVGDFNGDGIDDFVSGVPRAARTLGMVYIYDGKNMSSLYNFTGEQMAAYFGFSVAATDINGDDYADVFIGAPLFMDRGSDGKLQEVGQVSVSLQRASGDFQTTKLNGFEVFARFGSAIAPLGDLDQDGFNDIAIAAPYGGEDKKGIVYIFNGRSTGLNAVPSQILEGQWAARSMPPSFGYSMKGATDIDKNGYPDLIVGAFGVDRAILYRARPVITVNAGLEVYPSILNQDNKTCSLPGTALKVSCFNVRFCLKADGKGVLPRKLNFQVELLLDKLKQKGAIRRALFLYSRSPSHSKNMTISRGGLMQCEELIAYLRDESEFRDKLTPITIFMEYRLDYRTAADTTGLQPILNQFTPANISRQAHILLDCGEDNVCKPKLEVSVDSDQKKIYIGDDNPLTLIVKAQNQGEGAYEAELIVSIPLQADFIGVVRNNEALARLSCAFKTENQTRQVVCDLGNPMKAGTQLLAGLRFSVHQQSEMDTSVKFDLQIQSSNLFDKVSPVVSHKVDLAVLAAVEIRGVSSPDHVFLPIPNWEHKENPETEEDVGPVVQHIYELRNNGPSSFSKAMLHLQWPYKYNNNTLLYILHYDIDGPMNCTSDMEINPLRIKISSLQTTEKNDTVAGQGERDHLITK
Target sequence in this assay (P06756 891-1048 limits assumed): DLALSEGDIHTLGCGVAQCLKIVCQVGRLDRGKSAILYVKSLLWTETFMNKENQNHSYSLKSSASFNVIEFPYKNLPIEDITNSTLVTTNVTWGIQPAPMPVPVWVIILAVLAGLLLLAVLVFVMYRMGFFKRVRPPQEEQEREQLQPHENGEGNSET
A short description of assay [3]: Selectivity index, ratio of IC50 for binding affinity to human integrin alpha5beta1 to IC50 for binding affinity to human integrin alphaVbeta3.
Assay [4] concerns the target Integrin alpha-V/beta-6 (Homo sapiens, UniProt P06756+P18564). Kind of assay: Binding affinity to human integrin alphaVbeta6 incubated for 1 hr by ELISA based solid phase integrin binding assay. It is filed as protein-complex assay.
The target of assay [5] is Integrin alpha-V/beta-8 (Homo sapiens, UniProt P06756+P26012). In words: Binding affinity to human integrin alphaVbeta8 incubated for 1 hr by ELISA based solid phase integrin binding assay. The assay is classed as protein-complex assay.
Assay [6] concerns the target Integrin alpha-IIb/beta-3 (Homo sapiens, UniProt P05106+P08514). Kind of assay: Binding affinity to human integrin alpha2bbeta3 incubated for 1 hr by ELISA based solid phase integrin binding assay. It is filed as protein complex.
For assay [7], the system named is KB. In words: Cytotoxicity in human KB cells. The assay is classed as functional, cell-based. Conditions: for pIC50: Homo sapiens, KB.
The target in assay [8] is T1, Integrin alpha-V/beta-3. Kind of assay: Binding affinity to integrin alphaVbeta3 expressed in human M21 cells at 250 uM incubated for 30 mins by confocal microscopy. It is filed as cell-based.

pIC50: −log10 of the molar value. Active and inactive are the calls of the source. No cut-off for these calls is given here.

Sequence of Integrin alpha-5/beta-1 (P05556 21-798 limits assumed): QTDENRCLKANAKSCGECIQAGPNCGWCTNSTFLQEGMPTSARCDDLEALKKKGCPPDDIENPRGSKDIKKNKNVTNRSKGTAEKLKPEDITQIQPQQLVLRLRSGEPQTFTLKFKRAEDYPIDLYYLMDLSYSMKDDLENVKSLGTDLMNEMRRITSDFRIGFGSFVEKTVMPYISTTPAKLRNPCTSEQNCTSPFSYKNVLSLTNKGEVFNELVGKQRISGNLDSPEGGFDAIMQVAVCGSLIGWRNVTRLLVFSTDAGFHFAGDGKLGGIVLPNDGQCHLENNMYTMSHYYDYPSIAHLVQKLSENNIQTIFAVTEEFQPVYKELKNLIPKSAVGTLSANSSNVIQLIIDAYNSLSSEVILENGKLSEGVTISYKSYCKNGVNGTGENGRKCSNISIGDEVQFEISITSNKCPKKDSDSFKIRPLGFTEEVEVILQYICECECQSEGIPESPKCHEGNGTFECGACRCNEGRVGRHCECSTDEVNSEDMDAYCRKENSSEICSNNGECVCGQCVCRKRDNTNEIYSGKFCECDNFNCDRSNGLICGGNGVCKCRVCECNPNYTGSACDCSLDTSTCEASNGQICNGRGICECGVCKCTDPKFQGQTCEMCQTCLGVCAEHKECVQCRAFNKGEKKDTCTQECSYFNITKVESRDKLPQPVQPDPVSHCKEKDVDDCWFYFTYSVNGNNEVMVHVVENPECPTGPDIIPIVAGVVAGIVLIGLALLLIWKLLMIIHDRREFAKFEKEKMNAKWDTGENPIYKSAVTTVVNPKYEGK
Sequence of Integrin alpha-5/beta-1 (P08648 42-894 limits assumed): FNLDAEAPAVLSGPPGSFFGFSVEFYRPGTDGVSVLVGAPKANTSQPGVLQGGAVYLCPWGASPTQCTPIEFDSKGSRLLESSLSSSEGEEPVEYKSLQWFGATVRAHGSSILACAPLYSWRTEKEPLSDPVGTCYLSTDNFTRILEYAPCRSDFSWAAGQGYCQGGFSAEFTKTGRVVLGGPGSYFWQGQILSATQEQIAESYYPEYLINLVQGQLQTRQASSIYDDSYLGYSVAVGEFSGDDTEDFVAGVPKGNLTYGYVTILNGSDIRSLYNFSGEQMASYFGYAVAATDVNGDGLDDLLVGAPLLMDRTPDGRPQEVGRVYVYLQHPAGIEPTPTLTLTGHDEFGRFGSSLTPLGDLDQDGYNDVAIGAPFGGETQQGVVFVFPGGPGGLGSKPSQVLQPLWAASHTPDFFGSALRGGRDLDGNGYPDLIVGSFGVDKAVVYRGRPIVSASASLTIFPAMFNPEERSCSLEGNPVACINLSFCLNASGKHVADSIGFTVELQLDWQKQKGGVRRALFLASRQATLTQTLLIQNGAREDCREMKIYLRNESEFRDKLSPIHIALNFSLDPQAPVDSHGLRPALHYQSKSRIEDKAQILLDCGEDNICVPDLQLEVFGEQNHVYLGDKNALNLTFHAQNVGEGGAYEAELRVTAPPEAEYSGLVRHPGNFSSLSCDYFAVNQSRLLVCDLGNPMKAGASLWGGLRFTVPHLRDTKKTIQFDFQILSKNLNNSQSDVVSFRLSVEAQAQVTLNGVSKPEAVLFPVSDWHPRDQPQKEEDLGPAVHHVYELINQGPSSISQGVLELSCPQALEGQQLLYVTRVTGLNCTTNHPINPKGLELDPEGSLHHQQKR
Sequence of Integrin alpha-5/beta-1 (P08648 895-1049 limits assumed): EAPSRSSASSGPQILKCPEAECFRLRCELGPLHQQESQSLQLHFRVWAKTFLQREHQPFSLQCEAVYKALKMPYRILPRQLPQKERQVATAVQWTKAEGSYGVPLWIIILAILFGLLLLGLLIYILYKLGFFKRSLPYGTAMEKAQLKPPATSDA
Sequence of Integrin alpha-IIb/beta-3 (P05106 27-788 limits assumed): as the sequence (P05106 27-788 limits assumed) above
Sequence of Integrin alpha-IIb/beta-3 (P08514 32-887 limits assumed): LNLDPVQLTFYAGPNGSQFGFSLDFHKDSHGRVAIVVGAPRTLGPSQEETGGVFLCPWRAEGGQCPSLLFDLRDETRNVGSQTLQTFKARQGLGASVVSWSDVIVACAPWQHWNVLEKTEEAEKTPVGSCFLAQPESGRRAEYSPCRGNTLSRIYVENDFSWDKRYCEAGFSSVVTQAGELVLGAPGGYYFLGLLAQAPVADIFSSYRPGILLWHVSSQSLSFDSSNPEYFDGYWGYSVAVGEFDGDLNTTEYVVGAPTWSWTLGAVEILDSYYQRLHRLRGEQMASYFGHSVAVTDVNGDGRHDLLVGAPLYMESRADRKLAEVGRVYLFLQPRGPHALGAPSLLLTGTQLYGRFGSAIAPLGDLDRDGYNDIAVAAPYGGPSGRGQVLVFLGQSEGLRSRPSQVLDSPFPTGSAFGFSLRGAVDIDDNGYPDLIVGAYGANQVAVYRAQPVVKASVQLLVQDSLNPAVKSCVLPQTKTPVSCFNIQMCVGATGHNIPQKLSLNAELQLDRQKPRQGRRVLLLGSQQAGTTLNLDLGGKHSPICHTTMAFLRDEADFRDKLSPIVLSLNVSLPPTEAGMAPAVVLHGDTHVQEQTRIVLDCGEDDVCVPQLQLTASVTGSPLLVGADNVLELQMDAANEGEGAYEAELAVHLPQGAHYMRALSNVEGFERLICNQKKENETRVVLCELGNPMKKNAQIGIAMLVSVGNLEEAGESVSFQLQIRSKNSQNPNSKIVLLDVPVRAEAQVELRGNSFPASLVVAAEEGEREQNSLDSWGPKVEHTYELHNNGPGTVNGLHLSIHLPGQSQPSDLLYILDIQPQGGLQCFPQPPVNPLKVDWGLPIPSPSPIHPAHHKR
Sequence of Integrin alpha-IIb/beta-3 (P08514 891-1039 limits assumed): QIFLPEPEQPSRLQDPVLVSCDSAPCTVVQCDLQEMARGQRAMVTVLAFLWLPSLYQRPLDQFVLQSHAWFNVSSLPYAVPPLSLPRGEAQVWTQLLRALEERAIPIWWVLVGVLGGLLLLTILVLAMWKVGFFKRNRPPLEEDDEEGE

With `CC(C)[C@@H]1NC(=O)[C@@H](Cc2c[nH]c3c(F)cccc23)NC(=O)[C@H](CC(=O)O)NC(=O)CNC(=O)[C@H](CCCNC(=N)N)NC1=O`, the pIC50 is 7.23 in assay [1] and 9.46 in assay [2]. The Ratio IC50 in assay [3] came to 167.
For `CC(C)[C@@H]1NC(=O)[C@@H](Cc2c[nH]c3cc(Br)ccc23)NC(=O)[C@H](CC(=O)O)NC(=O)CNC(=O)[C@H](CCCNC(=N)N)NC1=O` the same measures were 7.36, 9.28 and 82.
`CC(C)[C@@H]1NC(=O)[C@@H](Cc2c[nH]c3c(Cl)cccc23)NC(=O)[C@H](CC(=O)O)NC(=O)CNC(=O)[C@H](CCCNC(=N)N)NC1=O`: the pIC50 in assay [1] is 7.04; in assay [2] it was 9.47. For the same compound, the Ratio IC50 in assay [3] is 269.
For `CC(C)[C@@H]1NC(=O)[C@@H](Cc2c[nH]c3cc(Cl)ccc23)NC(=O)[C@H](CC(=O)O)NC(=O)CNC(=O)[C@H](CCCNC(=N)N)NC1=O` the same measures were 7.41, 9.62 and 163.
In the same order, the values of `CC(C)[C@@H]1NC(=O)[C@@H](Cc2c[nH]c3c(Br)cccc23)NC(=O)[C@H](CC(=O)O)NC(=O)CNC(=O)[C@H](CCCNC(=N)N)NC1=O` are 7.13, 9.21 and 120.
In the same order, the values of `CC(C)[C@H]1NC(=O)[C@H](Cc2c[nH]c3c(Br)cccc23)NC(=O)[C@H](CC(=O)O)NC(=O)CNC(=O)[C@H](CCCNC(=N)N)NC1=O` are 6.33, 9.28 and 891.
As for `CC(C)[C@@H]1NC(=O)[C@@H](Cc2c[nH]c3c(-c4cccc(N)c4)cccc23)NC(=O)[C@H](CC(=O)O)NC(=O)CNC(=O)[C@H](CCCNC(=N)N)NC1=O`, the pIC50 in assay [4] is 7.44; in assay [1], 6.21; in assay [5] it was 6.66; in assay [6], < 5.00; in assay [2], 9.28. Besides, the Ratio IC50 in assay [3] came out at 1170.
For `COc1ccc(C[C@H]2NC(=O)/C=C/C[C@@H]([C@H](C)[C@@H]3O[C@H]3c3ccccc3)OC(=O)[C@H](CC(C)C)OC(=O)C(C)(C)CNC2=O)cc1Cl`, in assay [7], the pIC50 was 11.05.
Consider `O=[N+]([O-])/C=C1\NCCN1Cc1ccc(F)nc1`, for which, in assay [7], the LC90 amounted to 0.32 ppm.
Take `CC(C)[C@@H]1NC(=O)[C@@H](Cc2c[nH]c3ccccc23)NC(=O)[C@H](CC(=O)O)NC(=O)CNC(=O)[C@H](CCCNC(=N)N)NC1=O`: the pIC50 is 8.00 in assay [1] and 8.94 in assay [2]. Moreover, the Ratio IC50 in assay [3] was found to be 8.6.
With `CC(C)[C@@H]1C(=O)N[C@@H](CCCNC(=N)N)C(=O)NCC(=O)N[C@@H](CC(=O)O)C(=O)N[C@@H](Cc2c[nH]c3c(Br)cccc23)C(=O)N1C`, the pIC50 in assay [1] was < 5.00; in assay [2], 6.51.
`O=[N+]([O-])/C=C1\NCCN1Cc1cccnc1` returned an LC90 in assay [7] of 8 ppm.
Consider `CC(C)[C@@H]1NC(=O)[C@@H](Cc2c[nH]c3c(-c4ccc5ccc6cccc7ccc4c5c67)cccc23)NC(=O)[C@H](CC(=O)O)NC(=O)CNC(=O)[C@H](CCCNC(=N)N)NC1=O`, for which the pIC50 in assay [4] is 6.52; in assay [5], 6.00; in assay [6], < 5.00. Besides, in assay [8], the result was Active. Also, the Ratio IC50 in assay [3] is 407.
Turning to `O=[N+]([O-])/C=C1\NCCN1Cc1ccc(Br)nc1`, the LC90 in assay [7] was 1.6 ppm.
`CC(C)[C@@H]1NC(=O)[C@@H](Cc2c[nH]c3c(-c4c5ccccc5cc5ccccc45)cccc23)NC(=O)[C@H](CC(=O)O)NC(=O)CNC(=O)[C@H](CCCNC(=N)N)NC1=O`: the negative logarithm of the IC50 (pIC50) is 7.49 in assay [4]; 6.33 in assay [1]; 6.71 in assay [5]; < 5.00 in assay [6]; 9.23 in assay [2]. Further, the Ratio IC50 in assay [3] came out at 798.
Take `O=[N+]([O-])/C=C1\NCCN1Cc1ccc(Cl)nc1`: in assay [7], the LC90 is given as 0.32 ppm.
`COc1ccc(C[C@H]2NC(=O)/C=C/C[C@@H]([C@H](C)[C@@H]3O[C@H]3c3ccccc3)OC(=O)[C@H](CC(C)C)OC(=O)C(C)(C)CNC2=O)cc1` had a pIC50 in assay [7] of 10.14.
As for `CC(C)[C@H]1C(=O)N[C@@H](CCCNC(=N)N)C(=O)NCC(=O)N[C@@H](CC(=O)O)C(=O)N[C@H](Cc2c[nH]c3c(Br)cccc23)C(=O)N1C`, the pIC50 was 7.99 in assay [1] and 8.86 in assay [2]. Also, the Ratio IC50 in assay [3] stood at 7.4.
As for `COc1ccc(-c2cccc3c(C[C@H]4NC(=O)[C@H](CC(=O)O)NC(=O)CNC(=O)[C@H](CCCNC(=N)N)NC(=O)[C@H](C(C)C)NC4=O)c[nH]c23)cc1`, the negative-log IC50 (pIC50) in assay [4] is 7.30; in assay [1] it was 7.18; in assay [5], 7.12; in assay [6], < 5.00; in assay [2], 9.13. Also, the Ratio IC50 in assay [3] worked out at 89.
As for `CC(C)[C@@H]1NC(=O)[C@@H](Cc2c[nH]c3c(I)cccc23)NC(=O)[C@H](CC(=O)O)NC(=O)CNC(=O)[C@H](CCCNC(=N)N)NC1=O`, the negative-log IC50 (pIC50) in assay [1] was 7.31; in assay [2], 9.37. Moreover, in assay [3], the Ratio IC50 is 114.
Turning to `CC(C)[C@@H]1NC(=O)[C@@H](Cc2c[nH]c3c(-c4ccc(C(=O)O)cc4)cccc23)NC(=O)[C@H](CC(=O)O)NC(=O)CNC(=O)[C@H](CCCNC(=N)N)NC1=O`, the pIC50 is 7.27 in assay [4]; 7.66 in assay [1]; 7.41 in assay [5]; < 5.00 in assay [6]; 9.28 in assay [2]. For the same compound, in assay [3], the Ratio IC50 came to 42.
